Key:
[1] = test system: two spotted-mites (Tetramuchus urticae); assay: Mite control test, adult mites; assay type: in vivo; conditions: 40-ppm leaf dip, adult mortality one day after treatment; 1440 min
Description: (§1) Compounds of the invention were tested for the control mites and mite eggs by the following procedure. Pinto bean leaves were invested with two spotted-mites (Tetramuchus urticae). The mites were then allowed to lay eggs on the leaves. After 48 hours, the leaves were dipped into a water/acetone solution containing a small amount of a non-ionic surfactant and 40-ppm of the test compound. The treated leaves were then maintained at 85° F. One day after treatment, the mortality of adult mites was determined, and 7 days after treatment, the egg mortality (non-hatching eggs) was determined.

[2] = test system: Rhizoctonia solani; assay: Mycelia Inhibition; assay type: cell-based; conditions: 25° C., 24 hours
Description: (§2) The compounds of the present invention were evaluated for fungicidal effectiveness by means of a mycelial inhibition test. This test is designed to measure the fungitoxic acitvity of fungicidal chemicals in terms of their degree of inhibition of mycelium growth. Each compound to be tested was dissolved in acetone to 500 ppm concentration. Paper strips were innoculated with the particular mycelium growth by covering the paper with a potato dextrose broth culture of mycelial suspension. The innoculated papers were then placed on potato dextrose agar plates and sprayed by means of a micro sprayer with the fungicidal solution. The treated paper strips were incubated at 25° C. and data is taken after 24 hours. Fungicidal activities are measured by a zone of inhibited mycelial growth from the center of the paper strip. The effectiveness of the compounds tested for fungicidal activity is reported in Table VI in terms of the microgram/cm^2 for 99% control of the fungus.

[3] = test system: Aspergillus niger; assay: Mycelia Inhibition; assay type: cell-based; conditions: 25° C., 24 hours
Description: as §2

[4] = test system: Fusarium moniloforma; assay: Mycelia Inhibition; assay type: cell-based; conditions: 25° C., 24 hours
Description: as §2

[5] = test system: Erysiphe polygoni; assay: Powdery Mildew control on bean seedlings; assay type: in vivo; conditions: 250-ppm spray, about 10 days
Excerpt: The powdery mildew test was made using bean seedlings (var. Bountiful) with well-developed primary leaves. The pathogen was Erysiphe polygoni. The bean seedlings were sprayed with a 250-ppm solution of the test compound in an acetone-water mixture containing a nonionic emulsifer. The treated plants were inoculated one day after spray application of the test compound with the pathogen. […] The rate of infection on the leaves was made after about 10 days. The percent disease control provided by a given test compound was based on the disease reduction relative to untreated check plants.

[6] = test system: Watergrass (Echinochloa Crusgalli); assay: Post-emergent herbicidal test; assay type: in vivo; conditions: Echinochloa crus-galli, post-emergence, 504 h, 33 mcg/cm^2, 3 weeks, scale 0 (no phytotoxicity) to 100 (complete kill), read-out: Herbicidal Effectiveness (W)
Description: (§3) Post-emergent herbicidal tests with representative compounds of this invention were made using the following method.
(§4) An acetone solution of the test compound was prepared by mixing 750 mg of the compound, 220 mg of a nonionic surfactant and 25 ml of acetone. This solution was added to approximately 125 ml of water containing 156 mg of surfactant.
(§5) This test solution was uniformly sprayed on 2 similar pots of 24-day-old plants (approximately 15 to 25 plants per pot) at a dose of 33 mcg/cm^2. After the plants had dried, they were placed in a greenhouse and then watered intermittently at their bases, as needed. The plants were observed periodically for phytotoxic effects and physiological and morphological responses to the treatment. After 3 weeks, the herbicidal effectiveness of the compound was rated based on these observations. A 0-to-100 scale was used, 0 representing no phytotoxicity and 100 representing complete kill.

[7] = test system: Crabgrass (Digitaria sanguinalis); assay: Post-emergent herbicidal test; assay type: in vivo; conditions: post-emergence, 504 h, 33 mcg/cm^2, 3 weeks, scale 0 (no phytotoxicity) to 100 (complete kill), read-out: Herbicidal Effectiveness (C)
Description: as §3, §4, §5

[8] = test system: Lambsquarter (Chenopodium album); assay: Post-emergent herbicidal test; assay type: in vivo; conditions: post-emergence, 504 h, 33 mcg/cm^2, 3 weeks, scale 0 (no phytotoxicity) to 100 (complete kill), read-out: Herbicidal Effectiveness (P)
Description: as §3, §4, §5

[9] = test system: Pigweed (Amaranthus retroflexus); assay: Post-emergent herbicidal test; assay type: in vivo; conditions: post-emergence, 504 h, 33 mcg/cm^2, 3 weeks, scale 0 (no phytotoxicity) to 100 (complete kill), read-out: Herbicidal Effectiveness
Description: as §3, §4, §5

[10] = test system: Wild Oats (Avena fatua); assay: Post-emergent herbicidal test; assay type: in vivo; conditions: post-emergence, 504 h, 33 mcg/cm^2, 3 weeks, scale 0 (no phytotoxicity) to 100 (complete kill), read-out: Herbicidal Effectiveness (O)
Description: as §3, §4, §5

[11] = test system: Mustard (Brassica arvensis); assay: Post-emergent herbicidal test; assay type: in vivo; conditions: post-emergence, 504 h, 33 mcg/cm^2, 3 weeks, scale 0 (no phytotoxicity) to 100 (complete kill), read-out: Herbicidal Effectiveness (L)
Description: as §3, §4, §5

[12] = test system: mite eggs (Tetramuchus urticae); assay: Mite control test, mite eggs; assay type: in vivo; conditions: 40-ppm leaf dip, egg mortality (non-hatching eggs) 7 days after treatment
Description: as §1

[13] = test system: Alternaria solani; assay: Tomato Early Blight control; assay type: in vivo; conditions: 250-ppm spray, tomato seedlings, inoculated 1 day later
Description: Compounds of the invention were tested for the control of the Tomato Early Blight organism, Alternaria solani conidia. […] The tomato plans were sprayed with a 250-ppm solution of the test compound in an acetone-and-water solution containing a small amount of a non-ionic emulsifier. […] Percent disease control was based on the percent disease development on untreated check plants.

[14] = test system: Botrytis cinerea; assay: Mycelia Inhibition; assay type: cell-based; conditions: 25° C., 24 hours
Description: as §2

[15] = test system: Phytophthora infestans; assay: whole plant or invertebrate; assay type: in vivo; conditions: in Solanum lycopersicum, 168 h, read-out: Tomato Late Blight, % Control
[16] = test system: Septoria apii; assay type: in vivo; conditions: sprayed celery plants; concentration not given

Structure (SMILES)	Mite Control, % [1]	Mycelia Inhibition, for 99% control (R) [2]	Mycelia Inhibition, for 99% control (A) [3]	Mycelia Inhibition, for 99% control (F) [4]	Powdery Mildew % Control [5]	pest or weed control at 33 µg/cm2 [6]	pest or weed control at 33 µg/cm2 [7]	pest or weed control at 33 µg/cm2 [8]	pest or weed control at 33 µg/cm2 [9]	pest or weed control at 33 µg/cm2 [10]	pest or weed control at 33 µg/cm2 [11]	Mite Eggs Control, % [12]	Tomato Early Blight, % Control [13]	Mycelia Inhibition, for 99% control (B) [14]	pest or weed control at 250 µg/mL [15]	Celery Late Blight, % Control [16]
Clc1cc(Cl)cc(N=c2ssnc2Cl)c1 [Compound 3]	90%	0.98 micrograms/cm^2	> 1.7 micrograms/cm^2	> 1.7 micrograms/cm^2	76%	85%	55%	100%	100%	35%	100%	85%	–	–	–	–
Clc1ccc(N=c2ssnc2Cl)cc1Cl [Compound 5, 4-chloro-5-(3,4-dichlorophenylimino)-1,2,3-dithiazole]	99%	> 1.7 micrograms/cm^2	1.1 micrograms/cm^2	> 1.7 micrograms/cm^2	–	55%	30%	100%	100%	35%	100%	100%	–	–	–	–
Clc1ccc(N=c2ssnc2Cl)c(Cl)c1 [Compound 6]	100%	–	–	–	–	55%	35%	95%	100%	30%	100%	0%	56%	–	–	–
O=[N+]([O-])c1cccc(N=c2ssnc2Cl)c1 [Compound 8]	–	> 1.7 micrograms/cm^2	> 1.7 micrograms/cm^2	> 1.7 micrograms/cm^2	–	0%	0%	40%	30%	0%	35%	–	–	1.3 micrograms/cm^2	44%	–
Cc1ccc(N=c2ssnc2Cl)c(C)c1 [Compound 13]	0%	> 1.7 micrograms/cm^2	1.1 micrograms/cm^2	> 1.7 micrograms/cm^2	–	0%	0%	35%	35%	0%	50%	30%	44%	> 1.7 micrograms/cm^2	63%	–
Clc1cccc(N=c2ssnc2Cl)c1 [Compound 15]	–	0.98 micrograms/cm^2	> 1.7 micrograms/cm^2	> 1.7 micrograms/cm^2	–	45%	10%	80%	85%	30%	98%	–	–	> 1.7 micrograms/cm^2	68%	–
Clc1nssc1=Nc1ccc2ccccc2c1 [Compound 16]	–	–	–	–	–	90%	20%	70%	85%	0%	100%	–	–	–	73%	–
O=[N+]([O-])c1ccc(Oc2cccc(N=c3ssnc3Cl)c2)c(C(F)(F)F)c1 [Compound 17]	–	–	–	–	–	–	–	–	–	–	–	–	–	–	62%	56%
